Laboratory results as given in patent publication US10874743B2, “IRAK degraders and uses thereof” (Kymera Therapeutics, Inc., priority 2017, dated 2020).

Key:
[1] = biological target: T1, IRAK4 (Homo sapiens, UniProt Q9NWZ3); experiment: OCI-LY-10 degradation assay (western blot, % IRAK4 degraded after 4 hours); format: cell-based; design: endogenous in cells; host or cells: OCI-LY10; conditions: OCI-LY10 cells, 4 hours; for OCI-LY10 % IRAK4 Degradation (0.01 uM): 0.01 uM compound; for OCI-LY10 % IRAK4 Degradation (0.1 uM): 0.1 uM compound; for OCI-LY10 % IRAK4 Degradation (1 uM): 1 uM compound
T1 sequence (Q9NWZ3 1-460): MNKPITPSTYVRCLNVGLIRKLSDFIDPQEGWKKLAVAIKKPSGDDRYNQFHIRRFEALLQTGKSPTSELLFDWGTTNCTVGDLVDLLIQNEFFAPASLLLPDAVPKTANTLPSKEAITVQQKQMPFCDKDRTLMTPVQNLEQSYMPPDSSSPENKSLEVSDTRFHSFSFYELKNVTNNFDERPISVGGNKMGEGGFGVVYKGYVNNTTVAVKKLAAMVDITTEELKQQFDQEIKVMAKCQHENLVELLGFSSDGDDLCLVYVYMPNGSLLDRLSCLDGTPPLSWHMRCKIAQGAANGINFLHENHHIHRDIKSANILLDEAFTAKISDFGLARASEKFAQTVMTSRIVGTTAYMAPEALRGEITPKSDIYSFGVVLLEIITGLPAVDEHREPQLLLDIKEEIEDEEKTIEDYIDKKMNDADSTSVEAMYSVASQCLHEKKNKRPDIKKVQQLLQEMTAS
Outline: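 IRAK4 loss after 4 h at 37° C was scored A (>50%), B (>20-50%) or C (<20%) from infrared western blots of RIPA lysates, 20-25 μg protein per lane. Compound was applied at 0.003-10 μM final to OCI-LY10 cells cultured in RPMI-1640 with 20% FBS and 55 μM 2-ME.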

[2] = biological target: T1, IRAK4; experiment: OCI-LY-10 MSD assay for IRAK4 DC50; format: cell-based; design: endogenous in cells; host or cells: OCI-LY10; conditions: OCI-LY10 cells, 4 hr incubation, concentration required to degrade 50% of protein
Outline: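 IRAK4 level was quantified by MSD electrochemiluminescence (anti-IRAK4 capture antibody, rabbit anti-IRAK4 detection antibody) in RIPA lysates of OCI-Ly10 cells. Cells had been treated with compound for 4 hr (8-point, 3-fold serial dilution). Remaining protein versus concentration was fitted to a sigmoidal curve to give DC50.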

Structure (SMILES)	OCI-LY10 % IRAK4 Degradation (0.01 uM) [1]	OCI-LY10 % IRAK4 Degradation (0.1 uM) [1]	OCI-LY10 % IRAK4 Degradation (1 uM) [1]	DC50 [2]
NC(=O)c1nn(-c2ccc(C(=O)NCCOCCOCCCc3cccc4c3oc(=O)n4C3CCC(=O)NC3=O)cc2)cc1NC(=O)c1coc(-c2ccnc(NCC(F)(F)F)c2)n1 (stereo not shown) [I-266]	C (<20% degradation)	A (>50% degradation)	A (>50% degradation)	< 50 nM
O=C1CCC(N2C(=O)c3cccc(NC4CCN(CCOCCOCCNC(=O)c5ccc(-n6cc(NC(=O)c7coc(-c8ccnc(NCC9CC9)c8)n7)c(C(F)F)n6)cc5)CC4)c3C2=O)C(=O)N1 (stereo not shown) [I-267]	C (<20% degradation)	A (>50% degradation)	B (>20-50% degradation)	50 to 100 nM
O=C1CCC(N2C(=O)c3cccc(NC4CCN(CCOCCOCCOCCNC(=O)c5ccc(-n6cc(NC(=O)c7coc(-c8ccnc(NCC9CC9)c8)n7)c(C(F)F)n6)cc5)CC4)c3C2=O)C(=O)N1 (stereo not shown) [I-269]	C (<20% degradation)	B (>20-50% degradation)	A (>50% degradation)	< 50 nM
O=C1CCC(N2C(=O)c3ccc(NC4CCN(CCOCCOCCNC(=O)c5ccc(-n6cc(NC(=O)c7coc(-c8ccnc(NCC9CC9)c8)n7)c(C(F)F)n6)cc5)CC4)cc3C2=O)C(=O)N1 (stereo not shown) [I-270]	C (<20% degradation)	B (>20-50% degradation)	A (>50% degradation)	100 to 500 nM
O=C1CCC(N2C(=O)c3ccc(NC4CCN(CCOCCOCCOCCNC(=O)c5ccc(-n6cc(NC(=O)c7coc(-c8ccnc(NCC9CC9)c8)n7)c(C(F)F)n6)cc5)CC4)cc3C2=O)C(=O)N1 (stereo not shown) [I-272]	C (<20% degradation)	B (>20-50% degradation)	A (>50% degradation)	100 to 500 nM
O=C1CCC(N2C(=O)c3ccc(N4CCN(CCOCCOCCNC(=O)c5ccc(-n6cc(NC(=O)c7coc(-c8ccnc(NCC9CC9)c8)n7)c(C(F)F)n6)cc5)CC4)cc3C2=O)C(=O)N1 (stereo not shown) [I-276]	C (<20% degradation)	B (>20-50% degradation)	A (>50% degradation)	50 to 100 nM
O=C1CCC(N2C(=O)c3ccc(N4CCN(CCOCCNC(=O)c5ccc(-n6cc(NC(=O)c7coc(-c8ccnc(NCC9CC9)c8)n7)c(C(F)F)n6)cc5)CC4)cc3C2=O)C(=O)N1 (stereo not shown) [I-277]	C (<20% degradation)	A (>50% degradation)	A (>50% degradation)	50 to 100 nM
O=C1CCC(N2C(=O)c3ccc(N4CCN(CCOCCOCCOCCNC(=O)c5ccc(-n6cc(NC(=O)c7coc(-c8ccnc(NCC9CC9)c8)n7)c(C(F)F)n6)cc5)CC4)cc3C2=O)C(=O)N1 (stereo not shown) [I-278]	C (<20% degradation)	B (>20-50% degradation)	A (>50% degradation)	50 to 100 nM
CN(CCOCCOCCCc1ccc2c(c1)C(=O)N(C1CCC(=O)NC1=O)C2=O)C(=O)c1ccc(-n2cc(NC(=O)c3coc(-c4ccnc(NCC(F)(F)F)c4)n3)c(C(F)F)n2)cc1 (stereo not shown) [I-279]	C (<20% degradation)	A (>50% degradation)	A (>50% degradation)	50 to 100 nM
O=C1CCC(N2C(=O)c3cccc(NCCOCCN4CCO[C@H](CNC(=O)c5ccc(-n6cc(NC(=O)c7coc(-c8ccnc(NCC(F)(F)F)c8)n7)c(C(F)F)n6)cc5)C4)c3C2=O)C(=O)N1 (stereo partly shown) [I-281]	C (<20% degradation)	A (>50% degradation)	A (>50% degradation)	50 to 100 nM
